One assay addresses T1, CD80 (Mus musculus, UniProt Q00609).
T1 construct: endogenous in cells; host or cells: murine splenocytes (C57Bl/6)
T1 sequence (Q00609 38-306): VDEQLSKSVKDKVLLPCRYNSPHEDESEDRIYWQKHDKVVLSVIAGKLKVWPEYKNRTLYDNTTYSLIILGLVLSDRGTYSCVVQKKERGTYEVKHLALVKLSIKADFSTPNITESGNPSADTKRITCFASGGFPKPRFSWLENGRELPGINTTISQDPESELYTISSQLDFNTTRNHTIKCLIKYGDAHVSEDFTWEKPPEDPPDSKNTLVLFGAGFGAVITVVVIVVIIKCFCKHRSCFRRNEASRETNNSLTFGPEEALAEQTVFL
The assay can be described thus: Lymphocyte marker analysis by flow cytometry, CD80 epitope. The class given is cell-based, murine (C57BI/6 splenocytes). To be noted: for percent expression of cell surface molecule CD80: epitope-specific antibody, average of triplicate; for average percent suppression in epitope detection, CD80: relative to untreated control (0 ppm). On the procedure:
(§1) To evaluate the action of EGCG in rendering cells to become anergy-inducing, murine splenocytes were used as a model system. Splenocytes were collected from BALB/c (H2 K^b) and C57BI/6 (H2 K^d) female mice of 8 to 13 weeks of age in HBSS (BioWhittaker) with 1% FCS. Cells were washed with HBSS (1% FCS) and treated with the media solution which contains RPMI 1640 (Sigma-Aldrich), 10 mM HEPES (Dojindo), and various concentrations of EGCG (98% purity, Roche) described in the examples.
(§2) Flow cytometric analyses of surface epitopes for the control and EGCG-treated splenocytes were performed using a series of fluorescence-labeled monoclonal anti-mouse CD and MHC and corresponding isotype control antibodies (eBioscience: CD2, CD36, CD4, CD11a, CD25, CD 28, CD 49d and CD80; Pharmingen: TCRαβ and MHC II). Murine splenocytes (C57BI/6) were treated with red blood cell lysis buffer (eBioscience) for 5 min prior to EGCG treatments. Immediately following EGCG-treatments, the splenocytes were washed with RPMI 1640 (10% FCS) and a staining buffer (eBioscience) at 4 degree C. Each splenocyte sample was reconstituted as a 50 μl aliquot in the same staining buffer and subject to antibody labeling. After washing twice the samples with the staining buffer, a minimum of 10,000 events per sample was collected on a Becton Dickinson FACScan flow cytometer.
On the technique in general: A flow cytometer gives signals particle by particle.

Assay [1] relates to BALB/c (stimulator cells) and C57BI/6 (responder cells) splenocytes. The assay can be described thus: One-way mixed lymphocyte reaction (MLR). The class given is cell-based, murine. To be noted: stimulator or responder cells treated with 100, 200 ppm EGCG, 4-8 degree C., 1 hour, 72 hours culture, FIG. 3.
In the next assay the target is T2, CD49d (Mus musculus, UniProt Q00651).
T2 construct: endogenous in cells; host or cells: murine splenocytes (C57Bl/6)
T2 sequence (Q00651 41-1039): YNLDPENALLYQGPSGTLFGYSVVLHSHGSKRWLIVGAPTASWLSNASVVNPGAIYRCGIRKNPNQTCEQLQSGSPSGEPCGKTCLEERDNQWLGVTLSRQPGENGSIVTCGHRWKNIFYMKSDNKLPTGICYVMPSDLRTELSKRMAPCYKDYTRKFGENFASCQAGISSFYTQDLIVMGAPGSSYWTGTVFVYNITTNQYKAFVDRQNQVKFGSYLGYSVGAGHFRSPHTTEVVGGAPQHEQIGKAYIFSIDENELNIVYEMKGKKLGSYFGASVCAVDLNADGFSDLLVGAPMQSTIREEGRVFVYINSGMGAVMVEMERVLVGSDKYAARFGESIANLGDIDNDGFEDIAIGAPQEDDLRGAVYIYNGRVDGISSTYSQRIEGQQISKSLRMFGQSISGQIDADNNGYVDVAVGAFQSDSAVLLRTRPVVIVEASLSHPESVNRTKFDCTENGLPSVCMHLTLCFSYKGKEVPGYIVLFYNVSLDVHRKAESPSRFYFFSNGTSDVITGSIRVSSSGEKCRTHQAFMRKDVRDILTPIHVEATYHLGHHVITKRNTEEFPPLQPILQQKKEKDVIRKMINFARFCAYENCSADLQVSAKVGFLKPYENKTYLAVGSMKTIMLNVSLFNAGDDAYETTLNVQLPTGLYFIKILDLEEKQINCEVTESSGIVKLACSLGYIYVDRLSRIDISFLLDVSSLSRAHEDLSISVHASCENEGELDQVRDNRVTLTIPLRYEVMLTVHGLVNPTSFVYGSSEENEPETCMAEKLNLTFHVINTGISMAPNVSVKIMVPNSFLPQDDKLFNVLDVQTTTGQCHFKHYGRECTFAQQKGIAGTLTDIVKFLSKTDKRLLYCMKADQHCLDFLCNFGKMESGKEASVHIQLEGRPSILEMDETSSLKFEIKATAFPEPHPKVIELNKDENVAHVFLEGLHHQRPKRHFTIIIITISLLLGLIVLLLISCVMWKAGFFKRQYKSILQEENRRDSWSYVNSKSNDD
The assay can be described thus: Lymphocyte marker analysis by flow cytometry, CD49d epitope. To be noted: for percent expression of cell surface molecule CD49d: epitope-specific antibody, average of triplicate; for average percent suppression in epitope detection, CD49d: relative to untreated control (0 ppm). The class given is cell-based, murine (C57BI/6 splenocytes). On the procedure: as §1, §2

Assay [2] concerns C57BI/6 splenocytes co-cultured with EGCG-treated BALB/c splenocytes. The assay can be described thus: Occurrence of anergy: secondary stimulation of one-way MLR cultures. The class given is cell-based, murine. To be noted: additional 48 hours, FIG. 9. As to the method:
In a one-way MLR (FIG. 3), a stimulator splenocyte population (BALB/c) was treated with 30 ppm mitomycin C (MP Biomedicals) in RPMI 1640 (10% FCS) at 37 degree C. for 30 min. to arrest its proliferation before EGCG treatments. The splenocytes were then resuspended with the media solution (RPMI 1640 and 10 mM HEPES) containing 0, 100, and 200 ppm EGCG and incubated at 4-8 degree C. for 1 hour and twice washed with RPMI 1640 (10% FCS) before used for MLR experiments. In a two-way MLR (FIG. 4), both stimulator and responder populations were left capable of proliferating. Each cell population was resuspended in RPMI 1640 (10% FCS) and antibiotics: (penicillin 100 U/ml and streptomycin 100 ppm, BioWhittaker) to a final concentration of 5.0×10^6 cells/ml. The stimulator and responder cells were mixed with a 1:1 ratio (120 μl each) and incubated in triplicate in 96-well plates for 72 hours at […] and 5% CO2. Cell proliferation was estimated by counting with trypan-blue exclusion a small sample of the cells from each MLR well.

Marks after values point to notes of the source that are not given here.

As to (−)-epigallocatechin-3-o-gallate [EGCG], the “percent expression of cell surface molecule CD80” value at CD80 (EGCg 100 ppm) was determined as 3.1%; at CD80 (EGCg 200 ppm) it was 9.7%. For the same substance, the “average percent suppression in epitope detection, CD80” value is reported as “(85.4)** percent” on CD80 (EGCg 100 ppm) and “(16.4)** percent” on CD80 (EGCg 200 ppm). Also, the proliferation of splenocytes entry in assay [1] was “significantly decreased”. Also, the “percent expression of cell surface molecule CD49d” value came out at 19.7% at CD49d (EGCg 100 ppm) and 20.5% at CD49d (EGCg 200 ppm). Besides, the results for the “average percent suppression in epitope detection, CD49d” value at CD49d (EGCg 100 ppm) and on CD49d (EGCg 200 ppm) were “(54.1)** percent” and “(52.2)** percent”, respectively. Also, the “blocking of CD49d by EGCG” value at CD49d (summary of TABLE 1) is reported as “blocked”. Moreover, the “T-cell proliferation after secondary stimulation” value is “subtle but significant suppression” in assay [2] (both treatments (fresh stimulator cells, exogenous IL-2 1.7 IU/ml) added at 48 hours) and “suppressed the proliferation down to the level of unstimulated blank” in assay [2] (cell-stimulated cultures: fresh BALB/c stimulator cells added at 48 hours).

These data come from patent US20070259329A1, “Anergy-inducing cellular composition” (BioVerde. Inc., priority 2006, published 2007).
